Results: patent US10627402B2, “Peptides for targeting gastric cancer, and medical use tehreof” (priority 2014, dated 2020)

Tests used:
[1] = system: patient's gastric cancer tissue; assay: In vivo imaging of Cy5.5-labeled peptide-expressing phages (IVIS spectrum, ROI values); parameters: species or system mouse; unit not given here; settings: Cy5.5-labeled phage, tail vein injection, 2nd day
Procedure: (§1) Considering overcoming limitations that existing animal models transplanted with cultured cancer cells had, an ideal animal model of cancer similar to actual patient's cancer microenvironments is prepared. Then, to establish an animal model that can confirm influence of an irradiation-dependent cancer tissue, first, a mouse model transplanted with a cancer tissue that was extracted from an actual patient having gastric cancer was established. Regarding the establishment of such an animal model, the cancer tissue extracted from a patient was cultured in an NOD/SCID mouse. Once the cancer tissue was found in the NOD/SCID mouse, subculturing was carried out by using a Balb/c nude mouse, beginning from the next subculturing. In detail, after an NOD/SCID mouse was anesthetized via intraperitoneal injection of anesthetics, the cancer tissue was cut into pieces each having a size of 3×3 mm. Next, each of both flanks of the NOD/SCID mouse was transplanted with a piece of the cut cancer tissues, treated with a mixed solution of 100 μl of 100 IU/ml penicillin, 100 μg/ml streptomycin, 100 μg/ml gentamicin, and 2.5 μg/ml amphotericin B antibiotics, and then, sutured. The NOD/SCID mouse was recovered on a heating pad (for about 2 hours). Afterwards, the formation and growth of tumors were observed every week. When the cancer tissues grew to a size of 400-500 mm^3, the cancer tissues were separated and cut into pieces each having a size of 3×3 mm for subculturing. Next, for next subculturing, a nude mouse was anesthetized via intraperitoneal injection of anesthetics, and a piece of the cut cancer tissues was transplanted subcutaneously on the right thigh of the nude mouse. A transplantation site was changed from the flank to the both thighs so that irradiation can be locally done without affecting other organs during irradiation. That is, a mouse model in which a cancer tissue that underwent subculturing and was re-transplanted up to four times was formed was established. […] After having recovery time for no longer than 24 hours, in vivo peptide screening was performed. Here, as a control group in an irradiated population, a mouse model that was not irradiated among the same mouse models was used to screen a peptide.
(§2) In particular, 1 μg/μl of N-hydroxysuccinimide esters of Cy5.5 (Amersham) was added to 1 mL of bicarbonate buffer (pH 8.3) having the phage concentration of 10^11 plaque forming units (pfu), and then, in a condition where a dark environment was maintained, […] a phage-surface protein was linked to the Cy5.5 fluorescent probe at room temperature for 3 hours. That is, loop peptide-expressing phages to which the Cy5.5 fluorescent probe was linked were each obtained by precipitation with 170 μl of 20% (w/v) PEG 8000/2.5 M NaCl solution and purification. To determine a proportion of the Cy5.5 fluorescent probe linked to each of the finally obtained phage samples, an IVIS spectrum imaging system (Xenogen) was used for measurement, and region of interest (ROI) values were determined using the software program of a corresponding device. Accordingly, it was confirmed that the Cy5.5 fluorescent probe was linked to each of the phage samples at almost the same linking proportion.
(§3) After each of the prepared phages expressing the loop peptide was injected into the ratio-sensitive xenograft mouse model of Example 1 and the control group through the vein tail of the mouse, images were measured for 2 days immediately after the injection, thereby confirming images showing in vivo circulation of the peptide and the targeting of the peptide only in the cancer tissue while the targeting to other organs and tissues gradually disappeared. […] In addition, to verify which part of the cancer tissue was targeted by each of the loop peptide-expressing phages via ex vivo imaging, only the cancer tissue was separated and extracted, and the whole cancer tissue itself and the respective cancer tissue were subjected to fragmentation into several pieces. […]

[2] = system: patient's gastric cancer tissue; assay: Ex vivo imaging of extracted cancer tissue (IVIS spectrum, ROI values); format: in vivo, mouse; parameters: unit not given here
Procedure: as §1, §2, §3

[3] = system: patient's gastric cancer tissue; assay: Titering of phages eluted from extracted cancer tissue, relative to tissue weight; format: in vivo, mouse
Procedure: as §1
After each of the prepared phages expressing the loop peptide was injected into the ratio-sensitive xenograft mouse model of Example 1 and the control group through the vein tail of the mouse, images were measured for 2 days immediately after the injection, thereby confirming images showing in vivo circulation of the peptide and the targeting of the peptide only in the cancer tissue while the targeting to other organs and tissues gradually disappeared. […] In addition, to verify which part of the cancer tissue was targeted by each of the loop peptide-expressing phages via ex vivo imaging, only the cancer tissue was separated and extracted, and the whole cancer tissue itself and the respective cancer tissue were subjected to fragmentation into several pieces.
To compare targeting efficiency more accurately based on the results of FIGS. 5 and 6, the pieces of the extracted cancer tissue the pieces of the extracted cancer tissue were collected independently, and phages bound to the cancer tissues were eluted. The concentration of each of the eluted phages was measured according to titering, and due to different size and weight of the extracted cancer tissue, the weight of each cancer tissue was also measured in terms of establishing numerical standardization. In this regard, the amount of the identified phages was calculated relative to the weight of the cancer tissue. In addition, to more accurately quantify each imaging result, the in vivo imaging and the ex vivo imaging were confirmed by measuring ROI values that were determined using the IVIS spectrum (Xenogen) program, and the results thereof are shown in Table 2.

[4] = Non-irradiated population as control

| Substance | in vivo ROI ([1]; Irradiated population (10 Gy)) | in vivo ROI [1, 4] | ex vivo ROI ([2]; Irradiated population (10 Gy)) | ex vivo ROI [2, 4] | pfu/mg [3, 4] | pfu/mg ([3]; Irradiated population (10 Gy)) |
| --- | --- | --- | --- | --- | --- | --- |
| Cy5.5 [reference compound] | 1.00 | 1.00 | 1.00 | 1.00 |  |  |
| DVWHSAY [Peptide W3, 7-amino-acid loop peptide from non-irradiated population; tested as Cy5.5-labeled M13 phage expressing it] |  | 1.90 |  | 3.54 | 8.1 pfu/mg |  |
| NRGDRIL [Peptide P3, 7-amino-acid loop peptide from irradiated population; tested as Cy5.5-labeled M13 phage expressing it] | 19.83 |  | 77.85 |  |  | 18.6 pfu/mg |
| NWGDRIL [Peptide W1, 7-amino-acid loop peptide from non-irradiated population; tested as Cy5.5-labeled M13 phage expressing it] |  | 1.86 |  | 2.08 | 11.8 pfu/mg |  |
| QRSLPSL [Peptide W2, 7-amino-acid loop peptide from non-irradiated population; tested as Cy5.5-labeled M13 phage expressing it] |  | 2.19 |  | 2.68 | 18.2 pfu/mg |  |
| RYVGTLF [Peptide P2, 7-amino-acid loop peptide from irradiated population; tested as Cy5.5-labeled M13 phage expressing it] | 9.05 |  | 38.83 |  |  | 6.3 pfu/mg |
| TVRTSAD [Peptide P1, 7-amino-acid loop peptide from irradiated population; tested as Cy5.5-labeled M13 phage expressing it] | 16.44 |  | 70.66 |  |  | 25.3 pfu/mg |
